In ChEMBL document CHEMBL1201862, “PubChem BioAssay data set” (2004):
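All cell lines were grown in 96-well plates and treated with compound for 48 hours. The concentration for 50% growth inhibition is given as GI50.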 The source made the active and inactive calls. Cut-off read from the data, not from the text of the source: active = GI50 up to about 1.1 µM and inactive = higher.

Assays:
Assay in all cases: NCI-60 cell line screen, 48 h
NCI-H23 = tested on: NCI-H23
SK-OV-3 = tested on: SK-OV-3
DU-145 = tested on: DU-145
SNB-75 = tested on: SNB-75
SNB-19 = tested on: SNB-19
T47D = tested on: T47D
OVCAR-5 = tested on: OVCAR-5
SK-MEL-5 = tested on: SK-MEL-5
RXF 393 = tested on: RXF 393
NCI-H460 = tested on: NCI-H460
IGROV-1 = tested on: IGROV-1
MOLT-4 = tested on: MOLT-4
EKVX = tested on: EKVX
HCT-15 = tested on: HCT-15
COLO 205 = tested on: COLO 205
SW-620 = tested on: SW-620
OVCAR-8 = tested on: OVCAR-8
A498 = tested on: A498
KM12 = tested on: KM12
TK-10 = tested on: TK-10
UACC-62 = tested on: UACC-62
MDA-N = tested on: MDA-N
Malme-3M = tested on: Malme-3M
CAKI-1 = tested on: CAKI-1
OVCAR-4 = tested on: OVCAR-4
UO-31 = tested on: UO-31
A549 = tested on: A549
SK-MEL-2 = tested on: SK-MEL-2
SF-539 = tested on: SF-539
SR = tested on: SR
M14 = tested on: M14
ACHN = tested on: ACHN
HL-60 = tested on: HL-60
SF-295 = tested on: SF-295
K562 = tested on: K562
PC-3 = tested on: PC-3
HT-29 = tested on: HT-29
NCI-H522 = tested on: NCI-H522
UACC-257 = tested on: UACC-257
786-0 = tested on: 786-0
NCI/ADR-RES = tested on: NCI/ADR-RES
CCRF-CEM = tested on: CCRF-CEM
NCI-H226 = tested on: NCI-H226
BT-549 = tested on: BT-549
OVCAR-3 = tested on: OVCAR-3
MCF7 = tested on: MCF7
MDA-MB-435 = tested on: MDA-MB-435
SN12C = tested on: SN12C
HOP-92 = tested on: HOP-92
SK-MEL-28 = tested on: SK-MEL-28
Hs-578T = tested on: Hs-578T
LOX IMVI = tested on: LOX IMVI
MDA-MB-231 = tested on: MDA-MB-231
U-251 = tested on: U-251
SF-268 = tested on: SF-268
HCT-116 = tested on: HCT-116

For `COP(=O)(OC)[C@@](O)(c1ccccc1)[C@@H](O)[C@H](O)c1ccccc1`, the GI50 (NCI-H23) was > 100 µM (inactive), the GI50 (SK-OV-3) was > 100 µM (inactive) and the GI50 (DU-145) was > 100 µM (inactive). For the same molecule, the GI50 (SNB-75) was > 100 µM (inactive), the GI50 (SNB-19) was > 100 µM (inactive) and the GI50 (T47D) was > 100 µM (inactive). For the same molecule, the GI50 (OVCAR-5) was > 100 µM (inactive), the GI50 (SK-MEL-5) was > 100 µM (inactive) and the GI50 (RXF 393) was > 100 µM (inactive). For the same molecule, the GI50 (NCI-H460) was > 100 µM (inactive), the GI50 (IGROV-1) was > 100 µM (inactive) and the GI50 (MOLT-4) was > 100 µM (inactive). The GI50 (EKVX) was > 100 µM (inactive), the GI50 (HCT-15) was greater than 100 µM and the GI50 (COLO 205) was > 100 µM (inactive). The GI50 (SW-620) was 42.2 µM (inactive), the GI50 (OVCAR-8) was > 100 µM (inactive) and the GI50 (A498) was > 100 µM (inactive). For the same molecule, the GI50 (KM12) was > 100 µM (inactive), the GI50 (TK-10) was > 100 µM (inactive) and the GI50 (UACC-62) was > 100 µM (inactive). For the same molecule, the GI50 (MDA-N) was > 100 µM (inactive), the GI50 (Malme-3M) was > 100 µM (inactive) and the GI50 (CAKI-1) was > 100 µM (inactive). The GI50 (OVCAR-4) was > 100 µM (inactive), the GI50 (UO-31) was > 100 µM (inactive) and the GI50 (A549) was > 100 µM (inactive). The GI50 (SK-MEL-2) was > 100 µM (inactive), the GI50 (SF-539) was 38.4 µM (inactive) and the GI50 (SR) was > 100 µM (inactive). The GI50 (M14) was > 100 µM (inactive), the GI50 (ACHN) was > 100 µM (inactive) and the GI50 (HL-60) was > 100 µM (inactive). The GI50 (SF-295) was > 100 µM (inactive), the GI50 (K562) was 60.1 µM (inactive) and the GI50 (PC-3) was > 100 µM (inactive). For the same molecule, the GI50 (HT-29) was > 100 µM (inactive), the GI50 (NCI-H522) was > 100 µM (inactive) and the GI50 (UACC-257) was > 100 µM (inactive). The GI50 (786-0) was 98.6 µM (inactive), the GI50 (NCI/ADR-RES) was > 100 µM (inactive) and the GI50 (CCRF-CEM) was 18.3 µM (inactive). For the same molecule, the GI50 (NCI-H226) was > 100 µM (inactive), the GI50 (BT-549) was > 100 µM (inactive) and the GI50 (OVCAR-3) was > 100 µM (inactive). The GI50 (MCF7) was 22.5 µM (inactive), the GI50 (MDA-MB-435) was > 100 µM (inactive) and the GI50 (SN12C) was > 100 µM (inactive). The GI50 (HOP-92) was > 100 µM (inactive), the GI50 (SK-MEL-28) was > 100 µM (inactive) and the GI50 (Hs-578T) was > 100 µM (inactive). For the same molecule, the GI50 (LOX IMVI) was 21.1 µM (inactive), the GI50 (MDA-MB-231) was > 100 µM (inactive) and the GI50 (U-251) was > 100 µM (inactive). The GI50 (SF-268) was > 100 µM (inactive) and the GI50 (HCT-116) was 36 µM (inactive).
